The record followed here is patent US20160318866A1, “SUBSTITUTED BIPIPERIDINYL DERIVATIVES” (Bayer Pharma Aktiengesellschaft, priority 2013, published 2016).

SMILES strings stand for the structures.

The target in one series is T1, human α2C receptor (Homo sapiens, UniProt P18825).
T1 construct: expressed in transfected cells; host or cells: CHO cells, also recombinantly expressing chimeric G protein Gαqi3 and mitochondrial obelin (mtOb)
T1 sequence (P18825 1-462): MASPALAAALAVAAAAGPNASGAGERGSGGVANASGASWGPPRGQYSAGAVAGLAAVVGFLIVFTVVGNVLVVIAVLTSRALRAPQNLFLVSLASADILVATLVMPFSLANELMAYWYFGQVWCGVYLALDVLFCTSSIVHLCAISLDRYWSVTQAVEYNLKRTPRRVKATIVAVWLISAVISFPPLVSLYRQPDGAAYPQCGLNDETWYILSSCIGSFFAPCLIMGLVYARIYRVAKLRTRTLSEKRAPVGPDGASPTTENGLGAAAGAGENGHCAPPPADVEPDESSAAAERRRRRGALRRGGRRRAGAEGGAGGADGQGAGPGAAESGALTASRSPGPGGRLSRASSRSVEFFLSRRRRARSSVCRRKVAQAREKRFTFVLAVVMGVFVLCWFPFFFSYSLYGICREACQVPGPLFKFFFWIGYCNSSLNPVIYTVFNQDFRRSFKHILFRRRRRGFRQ
Kind of series: Antagonism against the adrenoreceptor α2C (luminescence, recombinant CHO cell line). It is filed as cell-based. The following applies: antagonism against adrenoreceptor α2C; noradrenaline 20 nM; tested up to 10 μM; read-out: IC50. Summed up: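 CHO cells expressing human α2C receptor with chimeric Gαqi3 and mitochondrial obelin, loaded with 2.5 μg/ml coelenterazine for one day at 30 °C.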

The subject of a further series is ZDF rat. The series can be described thus: Measurement of blood flow and blood pressure in rats (ZDF rats). Type of series: in vivo. The following applies: for Change in the femoral flow in %: ZDF rat, steady state, 32 min after start, vs initial flow, mean. How it is done:
(§1) Wistar rats (Hsd Cpb:Wu) of a weight of 250-350 g or ZDF rats (ZDF/Crl-Lepr fa/fa) of a weight of 330-520 g were anaesthetized using 2.5% isoflurane in an oxygen/laughing gas mixture (40:60). To determine the blood flow in the carotid artery and the femoral artery, the anaesthetized rat was brought into a supine position, and the left carotid artery and the right femoral artery are then carefully exposed. Blood flow was measured by placing flow probes (Transonic Flowprobe) at the vessels. By introducing a PE50 artery catheter into the left femoral artery, blood pressure and heart rate were determined (Transducer Ref. 5203660: from Braun CH). The substances were administered as a bolus injection or a continuous infusion via a venous catheter in the left femoral vein.
(§2) Following the preparation of the animals, there was a 5 min baseline interval. Infusion of the AR alphα2C receptor antagonist was then started. In the steady state (32 min after the start of the experiment), the femoral flow was determined in relation (% difference) to the initial flow.

In the next series the test system is Wistar rat. Kind of series: Measurement of blood flow and blood pressure in rats (Wistar rats). The following applies: steady state, 32 min after start, vs initial flow, mean. Type of series: in vivo. On the procedure: as §1, §2
Series [1] has as its system diabetic (ZDFfa/fa) and healthy rats (Wistar). Kind of series: Assay of perfusion-enhancing substances (microcirculation), laser doppler at the paw. It is filed as in vivo, rat. The following applies: single oral dose. From the text: In diabetic (ZDFfa/fa) and healthy rats (Wistar), a laser doppler probe was fastened under anaesthesia conditions (isoflurane anaesthesia) at the sole of the paw for measuring cutaneous microcirculation. The test animals were once treated orally with the test substances. During the experiment, microperfusion and temperature of the lower extremities were documented continuously. Here, a temperature-sensitive laser doppler probe (Periflux, O2C) was fastened with adhesive to the paws of the animals, allowing the measurement of microperfusion and skin temperature. The microcirculation measurement values were measured on both paws 30 min after oral administration of the test substance. […] Also stated is the MED for the significant increase of skin temperature (ttest).

Setting [2] is: anaesthetized rats, same experiment as femoral flow, strain not specified.

Broadly, the IC50 is the concentration needed to halve the response being measured. Consider `CC1CCCN(C2CCN(C(=O)c3ccc(C(C)(C)O)cc3)CC2)C1` (single isomer, unassigned) [Example 8, [4-(1-Hydroxy-1-methylethyl)phenyl)](3-methyl-1,4′-bipiperidin-1′-yl)methanone, (−)-enantiomer], for which the IC50 on human α2C receptor came out at 163 nM. The “Change in the femoral flow in %” value is on record as 12.0 (n = 4) % in the series on ZDF rat (3 μg/kg/min infusion); 127.9% in the series with ZDF rat (10 μg/kg/min infusion); 144.4% in the series with ZDF rat (30 μg/kg/min infusion); 14.2 (n = 3) % in the series with Wistar rat (10 μg/kg/min); 3.1 (n = 5) % in the series on Wistar rat (30 μg/kg/min infusion); 15.3 (n = 5) % with Wistar rat (300 μg/kg/min infusion). Also, the blood pressure entry in the series on ZDF rat (setting [2]) is recorded as “no changes”. For the same molecule, in the series with ZDF rat (setting [2]), the heart rate result is reported as “no changes”. In series [1] (at the MED, 30 min after administration), the “factor by which microcirculation is improved at this dose compared to placebo” value turned out to be 2.3 x. For the same molecule, in series [1] (minimum effective dose for significant increase of skin temperature (ttest)), the “MED [mg/kg] skin temperature” value is reported as 1 mg/kg. The “MED [mg/kg] microcirculation” value in series [1] (minimum effective dose for significantly improved microcirculation vs placebo, 30 min after administration) is given as 1 mg/kg.
